From patent EP1878431B1, “MEDICINAL AGENT FOR PREVENTING PROGRESSION OF APOPTOTIC AND JUGULATING NECROTIC CHANGES IN THE ORGANISM TISSUES” (Obschestvo S Ogranichennoi Otvetstvennostyu …, priority 2005, dated 2006)
Marks after values point to notes of the source that are not given here.

What was measured:
myocardium = assay: Myocardium ischemia (coronary artery ligation) with arterial hypertension: arrhythmia, ischemia and necrosis zones, myoglobin; format: in vivo, rats; conditions: for Arrhythmia duration / Ischemia zone, % of myocardium mass / Necrosis zone, % from ischemia zone / Necrosis zone, % from myocardium mass: 6 hours after bandaging
Experimental: (§1) The apoptosis activity was judged by poly-(ADP-ribose)-polymerase (key ferment of apoptotic cell loss), which was determined using Amersham Pharmacia Biotech test sets. The extent of necrotic cardiomyocites damage was estimated according to the quantity of myoglobin entry in the blood, in which the myoglobin content was measured spectrophotometrically.
(§2) Arterial hypertensia of normotensive rats was reproduced by imposing the ligature in the form of a titanic heliciform ring on a site of an aorta with the arteries of kidneys departing from it. The reached narrowing of an aortic lumen was 2/3 in diameter. Animals were operated on under anesthetic, in which their abdominal cavity was opened. The arterial pressure was measured by use of a gauge with a rubber cuff on the animal's tail. A signal from the gauge was recorded on a Mingograph EMT 118. On the 30th day after the operation, all of the animals were divided into two groups: in the first group the animal's left descending interventricular artery at its top third was ligated - the hard ischemia of a myocardium, and in the second group, an irreversible bilateral occlusion of the general carotids was reproduced with a silk thread (see example 9). […] Both groups of animals were euthanased on the 10th day after the operation. All of the investigated connections were introduced intravenously (this method of introduction was chosen to reflect the maximum effect of the medication) within 15 minutes after coronary artery bandaging. The developed means was also introduced intravenously in the form of an infusion in 5% glucose, or in tablet form with an oral administration, or in a kind of suppository.

[1] = tested on: poly-(ADP-ribose)-polymerase; assay: PARP activity during myocardium ischemia with arterial hypertension; format: in vivo, rats; conditions: no unit in table (b49 gives the norm in pkMole/mg of protein)
Experimental: as §1
as §2, with “All of the investigated connections were introduced intravenously (this method of introduction was chosen to reflect the maximum effect of the medication) within 15 minutes after coronary artery bandaging. The developed means was also introduced intravenously in the form of an infusion in 5% glucose, or in tablet form with an oral administration, or in a kind of suppository.” left out

[2] = tested on: poly-(ADP-ribose)-polymerase; assay: PARP activity in myocardium and brain at acute hypobaric hypoxia with hypercapnia; format: in vivo
Experimental: as §1
(§3) Example 7. Acute hypobaric anoxia (as one of the most adequate methods of hypoxia study) in combination with hypercapnia was modeled by "lifting" low-resistant to hypoxia animals to a critical altitude of 11,500 m at a speed of 1,200 m/min. If at this altitude for more than 10 minutes, hypoxia modeling stopped, and the animals were considered conditionally "high-resistant", and animals that lived less than 10 minutes were considered conditionally "low-resistant". In the present study, only animals with low-resistance to hypoxia were used. During the second experiment of "lifting" animals in order to simulate hypobaric anoxia, in combination with hypercapnia, these parameters were recorded: loss of pose time (LPT), lifetime - time from the end of "lifting" until respiratory standstill or the first atonal inhalation occurrence, restitution time (RT) - from a respiratory standstill until active pose restoration after descending the animal. The hypoxia stability factor was calculated as a ratio of the duration to the restitution time, an increase of which means the growth of the organism's resistance to the occurrence of extreme oxygen deprivation.
(§4) The studied substances were injected intravenously (method that reflects the maximum effect of the medication) 15 minutes prior to the experiment. The designed medication was also injected intravenously in the form of an infusion or pills that were administered orally or a suppository.

[3] = tested on: low-resistant to hypoxia animals; assay: Acute hypobaric anoxia in combination with hypercapnia (lifting to 11,500 m): lifetime, loss of pose time, restitution time, stability factor; format: in vivo; conditions: for Stability factor: ratio of duration to restitution time
Experimental: as §3, §4

[4] = 100 mg/kg intravenously within 15 minutes after coronary artery bandaging
[5] = 50 mg/kg intravenously 15 minutes prior to the experiment
[6] = 100 mg/kg intravenously 15 minutes prior to the experiment
[7] = 500 mg/kg intravenously 15 minutes prior to the experiment
[8] = 75 mg/kg intravenously within 15 minutes after coronary artery bandaging
[9] = 1.0 mg/kg intravenously 15 minutes prior to the experiment
[10] = 10.0 mg/kg intravenously 15 minutes prior to the experiment

CCc1nc(C)ccc1O [3-hydroxy-6-methyl-2-ethylpyridine]
Arrhythmia duration (myocardium; [4]): 58 ± 9 min
Ischemia zone, % of myocardium mass (myocardium; [4]): 39±3 % of myocardium mass
Necrosis zone, % from ischemia zone (myocardium; [4]): 67±3 % from ischemia zone
Necrosis zone, % from myocardium mass (myocardium; [4]): 26±9 % from myocardium mass
Myoglobin content after 8 hours (myocardium; [4]): 127±12 mcg/g dry solid matter
PARP activity [1, 4]: 0,256± 0,032

CCc1nc(C)ccc1O.O=C(O)CCC(=O)O [3-oxy-3-methyl-6-oxypyridine succinate]
PARP activity, % of control brain [2, 5]: 312±29 % of control
PARP activity, % of control myocardium [2, 5]: 204±21 % of control
PARP activity, % of control brain [2, 6]: 317±21 % of control
PARP activity, % of control myocardium [2, 6]: 208±29 % of control
PARP activity, % of control brain [2, 7]: 302±32 % of control
PARP activity, % of control myocardium [2, 7]: 202±19 % of control
Duration [3, 5]: 778 ± 107 s
Loss of Pose Time [3, 5]: 136 ± 22 s
Restitution time [3, 5]: 680 ± 69 s
Stability factor [3, 5]: 1.14±0.12
Duration [3, 6]: 707 ± 145 s
Loss of Pose Time [3, 6]: 156 ± 29 s
Restitution time [3, 6]: 642 ± 69 s
Stability factor [3, 6]: 1.10±0.13
Duration [3, 7]: 784 ± 107 s
Loss of Pose Time [3, 7]: 136 ± 39 s
Restitution time [3, 7]: 690 ± 83 s
Stability factor [3, 7]: 1.14±0.10

C[N+](C)(C)C[C@H](O)CC(=O)[O-] [L-carnitine]
Arrhythmia duration (myocardium; [8]): 68 ± 8 min
Ischemia zone, % of myocardium mass (myocardium; [8]): 40±3 % of myocardium mass
Necrosis zone, % from ischemia zone (myocardium; [8]): 70±5 % from ischemia zone
Necrosis zone, % from myocardium mass (myocardium; [8]): 28±9 % from myocardium mass
Myoglobin content after 8 hours (myocardium; [8]): 132±10 mcg/g dry solid matter
PARP activity [1, 8]: 0,406± 0,030

O=C([O-])CCCO.[Li+] [Lithium oxybutyrate]
PARP activity, % of control brain [2, 6]: 300±82 % of control
PARP activity, % of control myocardium [2, 6]: 200±33 % of control
Duration [3, 6]: 1345 ± 89 s
Loss of Pose Time [3, 6]: 436+90** sec
Restitution time [3, 6]: 885 ± 82 s
Stability factor [3, 6]: 1.4±0.2

NC(=O)c1ccc[n+]([C@@H]2O[C@H](COP(=O)([O-])OP(=O)(O)OC[C@H]3O[C@@H](n4cnc5c(N)ncnc54)[C@H](O)[C@@H]3O)[C@@H](O)[C@H]2O)c1 [NAD, nicotine-amide-adenine-dinucleotide]
PARP activity, % of control myocardium [2, 9]: 100±29 % of control
PARP activity, % of control myocardium [2, 10]: 103±24 % of control
Duration [3, 9]: 2034 ± 234 s
Loss of Pose Time [3, 9]: 936 ± 79 s
Restitution time [3, 9]: 1042 ± 44 s
Stability factor [3, 9]: 1.95±0.25
Duration [3, 10]: 2077 ± 109 s
Loss of Pose Time [3, 10]: 1036 ± 91 s
Restitution time [3, 10]: 1000 ± 82 s
Stability factor [3, 10]: 2.08±0.22

NC(=S)N=C(N)N [hutimine]
PARP activity, % of control brain [2, 6]: 290±83 % of control
PARP activity, % of control myocardium [2, 6]: 212±23 % of control
Duration [3, 6]: 986 ± 87 s
Loss of Pose Time [3, 6]: 186 ± 32 s
Restitution time [3, 6]: 685 ± 82 s
Stability factor [3, 6]: 1.45±0.12

OC[C@H]1O[C@@H](n2cnc3c(O)ncnc32)[C@H](O)[C@@H]1O [inosine]
PARP activity, % of control brain [2, 6]: 242±24 % of control
PARP activity, % of control myocardium [2, 6]: 192±23 % of control
Duration [3, 6]: 754 ± 30 s
Loss of Pose Time [3, 6]: 186 ± 39 s
Restitution time [3, 6]: 680 ± 69 s
Stability factor [3, 6]: 1.16±0.16

O=C(O)CCC(=O)O [succinic acid]
PARP activity, % of control brain [2, 6]: 325±20 % of control
PARP activity, % of control myocardium [2, 6]: 225±22 % of control
Duration [3, 6]: 747 ± 90 s
Loss of Pose Time [3, 6]: 121 ± 34 s
Restitution time [3, 6]: 1042 ± 69 s
Stability factor [3, 6]: 1.0±0.2
